The values below come from US20250188082A1, “Use of Hypoxanthine Compound In Preparation of Drug For Treating Pulmonary Fibrosis” (Sichuan Yiasuo Pharmaceutical Technology Co., Ltd., priority 2022, published 2025).

What all share (format): in vivo, C57BL/6 mice
Assay [1] has as its system influenza A virus-induced pulmonary fibrosis model (FM1 strain of influenza A (H1N1) virus). Briefly: Influenza A virus-induced pulmonary fibrosis model. The following applies: 120 mg/kg/d intragastric, 14 days; for Ashcroft scores: influenza A virus + bleomycin, lung tissue HE; for IL-1β / IL-6 / NF-κB / TNF-α: serum, influenza A (H1N1) FM1 + bleomycin, from two weeks after model. From the text:
Experimental method: an in-vivo influenza A virus-induced pulmonary fibrosis model was established: C57BL/6 mice (with weights being 22-25 g) were randomly and evenly divided into a plurality of groups, including blank control group, model group, Nintedanib positive control group, hypoxanthine analogue A group, hypoxanthine analogue B group, hypoxanthine analogue C group, compound 1 group, compound 2 group . . . compound 12 group, with 9 mice in each group. On Day 1, the mice in blank control group were instilled with normal saline nasally, and the mice in other groups were all infected with a FM1 strain of an influenza A (H1N1) virus 30 (μL) through nasal instillation. On Day 2, the mice received 5 mg/kg bleomycin through tracheas to induce their pulmonary fibrosis. After the model was established for two weeks, the mice in each group were intragastrically administrated for intervention for consecutive 14 days; the mice in blank control group and model group intragastrically received the same dosage of the normal saline as those in drug groups; the mice in Nintedanib positive control group received Nintedanib (120 mg/kg); the mice in hypoxanthine analogue A group, hypoxanthine analogue B group and hypoxanthine analogue C group respectively received hypoxanthine analogue A (120 mg/kg/d), hypoxanthine analogue B (120 mg/kg/d) and hypoxanthine analogue C (120 mg/kg/d); and the mice in compound 1 group, compound 2 group . . . compound 12 group respectively received compound 1 (120 mg/kg/d), compound 2 (120 mg/kg/d) . . . compound 12 (120 mg/kg/d) prepared in example 1. After administration for consecutive 14 days, the mice were observed every day, and their weights and death conditions were recorded. After administration, blood was taken from eyeballs for immediately detecting the expression levels of NF-κB, TNF-α, IL-1 and IL-6 in serum, and lung tissues were taken for HE detection and Ashcroft scoring.

Assay [2] deals with bleomycin-induced pulmonary fibrosis model. Put plainly: Advanced pulmonary fibrosis: bleomycin-induced model, dosing from three weeks after modelling. The conditions noted are these: for Leucocyte / Lymphocyte / Neutrophil / Ashcroft scores: advanced pulmonary fibrosis, 120 mg/kg/d intragastric, 14 days, from three weeks after model; for Leucocyte / Lymphocyte / Neutrophil: blood, Day 15, twice every day; for Ashcroft scores: lung tissue HE staining; for inhibition (anti-inflammatory) effect on leucocytes, neutrophils and lymphocytes in blood: mice with advanced pulmonary fibrosis, result in words.

Assay [3] deals with mycoplasma-induced pulmonary fibrosis model (MPFH strain). Briefly: Mycoplasma-induced pulmonary fibrosis model. The following applies: 120 mg/kg/d intragastric, 14 days; for Leucocyte / Lymphocyte / Neutrophil: MPFH mycoplasma + bleomycin, once a day, from two weeks after model; for Ashcroft scores: mycoplasma + bleomycin, lung tissue HE. From the text:
Experimental method: an in-vivo mycoplasma-induced pulmonary fibrosis model was established: C57BL/6 mice (with weights being 22-25 g) were randomly and evenly divided into a plurality of groups, including blank control group, model group, Nintedanib positive control group, hypoxanthine analogue A group, hypoxanthine analogue B group, hypoxanthine analogue C group, compound 1 group, compound 2 group . . . compound 12 group, with 9 mice in each group. Before a model was established, the mice were anesthetized with diethyl ether. In addition to that the mice in blank control group with instilled with 100 μL of normal saline nasally, the mice in other groups with slowly instilled with an equal volume of a MPFH strain solution (containing 1×10^7 mL^−1 MPFH strain) to the nasal cavity, for consecutive 3 days, and inhaled the MPFH strain solution into bronchi. After instillation with mycoplasmas through tracheas, the mice received 5 mg/kg bleomycin through tracheas to induce their pulmonary fibrosis. After the model was established for two weeks, the mice in each group were intragastrically administrated for intervention for consecutive 14 days; the mice in blank control group and model group intragastrically received an equal dosage of normal saline as those in drug groups; the mice in Nintedanib positive control group received Nintedanib (120 mg/kg); the mice in hypoxanthine analogue A group, hypoxanthine analogue B group and hypoxanthine analogue C group respectively received hypoxanthine analogue A (120 mg/kg/d), hypoxanthine analogue B (120 mg/kg/d) and hypoxanthine analogue C (120 mg/kg/d); and the mice in compound 1 group, compound 2 group . . . compound 12 group respectively received compound 1 (120 mg/kg/d), compound 2 (120 mg/kg/d) . . . compound 12 (120 mg/kg/d) prepared in example 1. The mice were administrated once a day to be treated for consecutive 14 days. The mice were observed every day, and their weights and death conditions were recorded. On the last day of administration, the mice were sacrificed; and blood was taken from eyeballs and kept at −80° C. for detecting blood routine indexes. Meanwhile, lungs were lavaged with normal saline and separated to collect lavage fluids for detecting counts and classes of leucocytes; and lung tissues were taken for HE straining and Ashcroft scoring on the extent of pulmonary fibrosis.

Assay [4] concerns Streptococcus pneumoniae-induced pulmonary fibrosis model. Put plainly: Streptococcus pneumoniae-induced pulmonary fibrosis model. The conditions noted are these: for Leucocyte / Lymphocyte / Neutrophil / Ashcroft scores: Streptococcus pneumoniae + bleomycin, 120 mg/kg/d intragastric, 14 days; for Leucocyte / Lymphocyte / Neutrophil: blood, Day 15, 3 times every day, from one week after model; for Ashcroft scores: lung tissue HE staining; for inhibition (anti-inflammatory) effect on leucocytes, neutrophils and lymphocytes in blood: mice with Streptococcus pneumoniae-induced pulmonary fibrosis, result in words.

In the case of `CCOc1ncnc2c1ncn2C(C)C` [Compound 8], in assay [1], the Ashcroft scores came to 1.28, the IL-1β was 28.6 pg/mL, the IL-6 amounted to 66.0 pg/mL and the NF-κB came out at 26.8 pg/mL. Also, the TNF-α in assay [1] came to 89.9 pg/mL. In assay [2], the Leucocyte is 4.59 10^9/L, the Lymphocyte is 5.73 10^9/L, the Neutrophil is given as 1.42 10^9/L and the Ashcroft scores was found to be 1.21. For the same compound, in assay [3], the Leucocyte is listed as 7.26 10^9/L, the Lymphocyte was 72.52 10^9/L, the Neutrophil is on record as 23.62 10^9/L and the Ashcroft scores is listed as 1.26. Also, in assay [4], the Leucocyte was 6.68 10^9/L, the Lymphocyte is reported as 8.09 10^9/L, the Neutrophil is on record as 1.94 10^9/L and the Ashcroft scores was determined as 1.31.

On to `CCCOc1ncnc2c1ncn2C(C)C` [Compound 9], for which, in assay [1], the Ashcroft scores amounted to 1.33, the IL-1β is listed as 28.4 pg/mL, the IL-6 was found to be 65.8 pg/mL and the NF-κB is recorded as 27.1 pg/mL. Moreover, the TNF-α in assay [1] is recorded as 91.1 pg/mL. Besides, in assay [2], the Leucocyte is on record as 4.69 10^9/L, the Lymphocyte is 5.69 10^9/L, the Neutrophil is 1.46 10^9/L and the Ashcroft scores came to 1.11. In assay [3], the Leucocyte is reported as 6.79 10^9/L, the Lymphocyte is given as 73.19 10^9/L, the Neutrophil was 22.06 10^9/L and the Ashcroft scores was found to be 1.38. Besides, in assay [4], the Leucocyte was 6.73 10^9/L, the Lymphocyte is recorded as 7.11 10^9/L, the Neutrophil is recorded as 1.89 10^9/L and the Ashcroft scores is given as 1.33.

For `CC(C)Oc1ncnc2c1N(C(C)C)CN2C(C)C` [Compound 10], in assay [1], the Ashcroft scores amounted to 1.30, the IL-1β is reported as 29.3 pg/mL, the IL-6 worked out at 64.9 pg/mL and the NF-κB turned out to be 27.7 pg/mL. The TNF-α in assay [1] came to 89.6 pg/mL. Also, in assay [2], the Leucocyte is reported as 4.26 10^9/L, the Lymphocyte is 5.71 10^9/L, the Neutrophil is given as 1.38 10^9/L and the Ashcroft scores is reported as 1.16. In assay [3], the Leucocyte is 6.18 10^9/L, the Lymphocyte is 72.54 10^9/L, the Neutrophil is reported as 21.11 10^9/L and the Ashcroft scores worked out at 1.45. In assay [4], the Leucocyte is listed as 7.01 10^9/L, the Lymphocyte is on record as 7.33 10^9/L, the Neutrophil is 1.99 10^9/L and the Ashcroft scores was 1.38.

With `CC(=O)Oc1ncnc2c1ncn2C(C)C` [Compound 11], in assay [1], the Ashcroft scores was found to be 1.26, the IL-1β was found to be 27.9 pg/mL, the IL-6 came to 64.6 pg/mL and the NF-κB was 26.6 pg/mL. For the same compound, the TNF-α in assay [1] stood at 88.7 pg/mL. Further, in assay [2], the Leucocyte is 4.22 10^9/L, the Lymphocyte is listed as 5.57 10^9/L, the Neutrophil is reported as 1.39 10^9/L and the Ashcroft scores turned out to be 1.07. Moreover, in assay [3], the Leucocyte is 6.70 10^9/L, the Lymphocyte is 73.25 10^9/L, the Neutrophil is given as 22.47 10^9/L and the Ashcroft scores was determined as 1.50. For the same compound, in assay [4], the Leucocyte is reported as 6.29 10^9/L, the Lymphocyte is reported as 6.21 10^9/L, the Neutrophil is listed as 1.81 10^9/L and the Ashcroft scores came to 1.28.

For the compound `CCC(=O)Oc1ncnc2c1ncn2C(C)C` [Compound 12], in assay [1], the Ashcroft scores is reported as 1.31, the IL-1β was 29.9 pg/mL, the IL-6 came out at 64.7 pg/mL and the NF-κB worked out at 28.1 pg/mL. Besides, the TNF-α in assay [1] was 90.8 pg/mL. Besides, in assay [2], the Leucocyte is 4.04 10^9/L, the Lymphocyte is on record as 5.65 10^9/L, the Neutrophil was 1.23 10^9/L and the Ashcroft scores is 1.13. Further, in assay [3], the Leucocyte was 6.12 10^9/L, the Lymphocyte is on record as 74.46 10^9/L, the Neutrophil is reported as 21.68 10^9/L and the Ashcroft scores is on record as 1.12. Besides, in assay [4], the Leucocyte is listed as 7.04 10^9/L, the Lymphocyte is reported as 7.23 10^9/L, the Neutrophil was 1.97 10^9/L and the Ashcroft scores amounted to 1.39.

As to `O=c1[nH]cnc2[nH]cnc12` [Hypoxanthine analogue A, reference compound], in assay [1], the Ashcroft scores amounted to 6.11, the IL-1β was found to be 323.1 pg/mL, the IL-6 is 450.9 pg/mL and the NF-κB is recorded as 780.3 pg/mL. Further, the TNF-α in assay [1] worked out at 339.4 pg/mL. In assay [2], the Leucocyte is 66.48 10^9/L, the Lymphocyte is 71.65 10^9/L, the Neutrophil was 67.48 10^9/L and the Ashcroft scores stood at 5.88. Besides, the “inhibition (anti-inflammatory) effect on leucocytes, neutrophils and lymphocytes in blood” value (shortened to “inhibition (anti-inflammatory) effect”) in assay [2] is “obviously inferior”. For the same compound, in assay [3], the Leucocyte is listed as 116.79 10^9/L, the Lymphocyte was 567.15 10^9/L, the Neutrophil was 234.53 10^9/L and the Ashcroft scores turned out to be 6.64. Further, in assay [4], the Leucocyte is listed as 155.12 10^9/L, the Lymphocyte was 90.75 10^9/L, the Neutrophil is given as 89.99 10^9/L and the Ashcroft scores turned out to be 6.12. Also, the “inhibition (anti-inflammatory) effect” value in assay [4] is reported as “obviously inferior”.

As for `CC(C)Oc1ncnc2c1ncn2C` [Hypoxanthine analogue B, reference compound], in assay [1], the Ashcroft scores was 6.07, the IL-1β is on record as 329.7 pg/mL, the IL-6 came out at 422.7 pg/mL and the NF-κB is given as 771.9 pg/mL. Further, the TNF-α in assay [1] is 341.6 pg/mL. Besides, in assay [2], the Leucocyte was 71.35 10^9/L, the Lymphocyte is given as 67.37 10^9/L, the Neutrophil is on record as 68.34 10^9/L and the Ashcroft scores amounted to 6.01. Further, the “inhibition (anti-inflammatory) effect” value in assay [2] is “obviously inferior”. For the same compound, in assay [3], the Leucocyte was 118.58 10^9/L, the Lymphocyte is on record as 568.05 10^9/L, the Neutrophil was 233.92 10^9/L and the Ashcroft scores turned out to be 6.30. In assay [4], the Leucocyte was 156.11 10^9/L, the Lymphocyte is listed as 91.01 10^9/L, the Neutrophil is listed as 89.86 10^9/L and the Ashcroft scores is 6.14. In addition, in assay [4], the “inhibition (anti-inflammatory) effect” value is on record as “obviously inferior”.
